# Test results: article PMC11487390, “Design and Synthesis of 1,3-Diarylpyrazoles and Investigation of Their Cytotoxicity and Antiparasitic Profile” (International Journal of Molecular Sciences, 2024)
# Counter-ions that a name gives are not always drawn. Like-named read-outs stand apart in the source and are kept apart here.
# How the values were obtained:
# [1] = target: Toll-like receptor 9 (TLR9); design: method as in PMID 27537371; conditions: readout of a cellular assay, cited from earlier work
# [2] = Cytotoxicity assay, MRC-5SV2 cells, resazurin, 3 days; type: cell-based; conditions: human, MRC-5SV2 human lung fibroblast cells, MRC-5 cells, highest concentration 64 µM
# Outline: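 MRC-5SV2 fibroblasts (1.5 × 10^5 cells/mL, MEM, 5% FCS) exposed 3 days at 37 °C, 5% CO2 to 64–0.25 µM (4-fold), DMSO <1%. Viability by resazurin (10 µg mL^−1, 4 h) fluorescence; EC50 interpolated from flanking points around 50% inhibition.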
# [3] = test system: T. b. brucei Squib 427 strain; assay: T. b. brucei growth assay (resazurin, 3 days); type: cell-based, Trypanosoma brucei brucei; conditions: 3 days, read-out: T. b. bruc. (EC50)
# Outline: (§1)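 Bloodstream parasites in HMI-9 with 10% FCS at 37 °C, 5% CO2, 1.5 × 10^4 (T. b. brucei) or 4 × 10^3 (T. b. rhodesiense) per well, exposed to 10 concentrations from 64 µM to 0.2 nM. After 3 days resazurin added, fluorescence read after 24 h or 6 h respectively; EC50 derived.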
# [4] = test system: primary mouse macrophages (PMMs); assay: Cytotoxicity against primary peritoneal mouse macrophages (PMM); type: cell-based; conditions: Macrophage
# Protocol: The series of final products (13–69) was investigated in vitro on the human fetal lung fibroblast cell line MRC-5 (Table 1) to assess cytotoxicity toward normal (i.e., non-malignant) human cells. […] As explained earlier, these are important pathogens for humans or cattle (T. b. brucei) and a persistent need for new therapeutics exists for these parasites. As a part of the antiparasitic tests, cytotoxicity against primary mouse macrophages (PMMs) was also evaluated. These murine cells serve as host cells for parasites in the L. infantum assay. Therefore, the murine macrophage assay not only offers additional cytotoxicological insight but is also essential to interpreting the readout of the L. infantum assay.
# The MRC-5SV2 human lung fibroblast cell line was cultured in MEM + Earle’s salts-medium, supplemented with 2 mM L-glutamine, 16.5 mM NaHCO3, and 5% inactivated fetal calf serum. For evaluating the antileishmanial activity, the L. infantum MHOM/MA(BE)/67 strain was used. This strain was maintained in a Golden hamster (Mesocricetus auratus). Amastigotes were collected from the spleen of an infected donor hamster using differential centrifugation. Primary peritoneal mouse macrophages were used as host cells and were collected 2 days after peritoneal stimulation with a 2% potato starch suspension. For the intracellular T. cruzi assays, the Tulahuen CL2 strain was used that expresses β-galactosidase. The strain was maintained in MRC-5SV2 cells in MEM medium. The T. b. brucei Squib 427 strain or T. b. rhodesiense STIB-900 strain was used for screening against the extracellular African trypanosomes. The strains were maintained in Hirumi’s Modified Iscove’s medium-9 (HMI-9), supplemented with 10% inactivated fetal calf serum. All cultures and assays were performed at 37 °C with 5% CO2.
# Primary peritoneal mouse macrophages (PMMs) were prepared in RPMI-1640 medium, supplemented with 2 mM L-glutamine, 16.5 mM NaHCO3, and 5% inactivated fetal calf serum. The macrophages are infected after 48 h with spleen-derived L. infantum amastigotes (3 × 10^4 PMM + 4.5 × 10^5 parasites/well). The compounds were added after 2 h of infection. After 5 days incubation, parasite burdens (mean number of amastigotes/macrophage) were assessed microscopically after staining with a 10% Giemsa solution and EC50 values were calculated.
# [5] = test system: L. infantum MHOM/MA(BE)/67 strain; assay: L. infantum intracellular amastigote assay in PMM (Giemsa, 5 days); type: cell-based, Leishmania infantum
# Outline: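 Primary mouse peritoneal macrophages were infected with spleen-derived amastigotes (3 × 10^4 PMM + 4.5 × 10^5 parasites/well), and compound was added 2 h post-infection. Ten concentrations (64 µM to 0.2 nM; DMSO <1%) were incubated 5 days at 37 °C, 5% CO2. Giemsa-stained amastigotes per macrophage were counted microscopically to give EC50.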
# [6] = test system: T. b. rhodesiense STIB-900 strain; assay: T. b. rhodesiense growth assay (resazurin, 3 days); type: cell-based, Trypanosoma brucei rhodesiense; conditions: 3 days, read-out: T. b. rhod. (EC50)
# Outline: as §1
# [7] = test system: Trypanosoma cruzi Tulahuen CL2 strain; assay: Intracellular T. cruzi assay in MRC-5 cells (β-galactosidase/CPRG, 7 days); type: cell-based; conditions: intracellular in MRC-5 cells
# Outline: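 MRC-5SV2 fibroblasts infected with β-galactosidase-expressing T. cruzi Tulahuen CL2 and exposed to compounds (10 concentrations, 64 µM to 0.2 nM; DMSO <1%) for 7 days at 37 °C, 5% CO2. Parasite growth read by CPRG absorbance at 540 nm after 4 h versus untreated infected controls; EC50 calculated.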
# [8] = Leishmania infantum, 120 h, amastigotes in PMM, 5 days, read-out: L. inf. (EC50)
# [9] = Trypanosoma brucei, RHODESIENSE, 72 h
# [10] = Trypanosoma cruzi, TULAHUEN, MRC5, 168 h
Structure (SMILES),EC50 for TLR9 antagonism [1],EC50 at 3 days [2] [µM],"EC50 ([3]; Trypanosoma brucei, 72 h) [µM]",EC50 [4] [µM],"EC50 [5, 8] [µM]","EC50 [6, 9] [µM]","EC50 [7, 10] [µM]",EC50 [3] [µM],EC50 ([3]; listed as 26/HIT 8) [µM],"EC50 ([5]; Leishmania infantum, 120 h, read-out: L. inf. (EC50, µM), amastigotes in PMM, 5 days) [µM]","EC50 ([5]; read-out: L. inf. (EC50), amastigotes in PMM, 5 days) [µM]",EC50 [6] [µM],EC50 ([6]; listed as 26/HIT 8) [µM],EC50 ([1]; read-out: EC50 for TLR9 antagonism) [µM],EC50 [7] [µM]
"CN(C)CCCNCc1cn(-c2ccccc2)nc1-c1ccc2c(c1)OCCO2.Cl.Cl [Compound 29, N^1-((3-(2,3-dihydrobenzo[b][1,4]dioxin-6-yl)-1-phenyl-1H-pyrazol-4-yl)methyl)-N^3,N^3-dimethylpropane-1,3-diamine dihydrochloride]",grossly comparable potency,5.14,–,–,–,–,–,–,–,–,–,–,–,–,–
"O=C(Nc1ccc(F)cc1)c1cn(-c2ccccc2)nc1-c1ccc2c(c1)OCCO2 [Compound 31, 3-(2,3-dihydrobenzo[b][1,4]dioxin-6-yl)-N-(4-fluorophenyl)-1-phenyl-1H-pyrazole-4-carboxamide]",–,> 64,6.73,> 64,> 64,3.12,7.38,–,–,–,–,–,–,–,–
"c1ccc(-n2cc(CNCCN3CCCC3)c(-c3ccc4c(c3)OCCO4)n2)cc1 [Compound 26, N-((3-(2,3-dihydrobenzo[b][1,4]dioxin-6-yl)-1-phenyl-1H-pyrazol-4-yl)methyl)-2-(pyrrolidin-1-yl)ethan-1-amine dihydrochloride]",–,21.7,–,32,–,–,< 10,1.52,< 10,< 10,8.3,1.75,< 10,3.16,7.92
"CNC(=O)c1ccc(NCc2cn(-c3ccccc3)nc2-c2ccc3c(c2)OCCO3)cn1 [Compound 18, 5-(((3-(2,3-dihydrobenzo[b][1,4]dioxin-6-yl)-1-phenyl-1H-pyrazol-4-yl)methyl)amino)-N-methylpicolinamide]",–,49.9,> 64,32,9.19,> 64,> 64,–,–,–,–,–,–,–,–
